Reference: PMC12395807, “Chemoreceptor family in plant-associated bacteria responds preferentially to the plant signal molecule glycerol 3-phosphate” (Genome Biology, 2025)
Read-outs that look alike come from different tables or passages of the source.

Legend:
[1] = target: LBD of chemoreceptor R5 (WP_028444678.1); test: ITC binding to R5-LBD; set-up: species or system Chitinimonas koreensis; settings: 20 °C, Nb = no binding
Description: (§1) Plasmids for the overexpression of the different proteins were transformed into E. coli BL21(DE3). The resulting strains were grown under continuous stirring (200 rpm) at 30 °C in 2-L Erlenmeyer flasks containing 500 mL of LB medium supplemented with 50 μg/mL kanamycin. At an OD660 of 0.5, protein expression was induced by the addition of 0.1 mM isopropyl β-D-1-thiogalactopyranoside. Growth was continued at 16 °C overnight prior to cell harvesting by centrifugation at 10,000 × g for 20 min. Cell pellets were resuspended in buffer A (Additional file 2: Table S4) and subsequently broken by French press treatment at 62.5 lb/in^2. After centrifugation at 20,000 × g for 30 min, the supernatants were loaded onto 5-mL HisTrap HP columns (Amersham Biosciences) equilibrated with buffer A, and the proteins were eluted with a linear gradient of buffer B (Additional file 2: Table S4). All proteins contain a hexa-histidine tag at the N-terminal extension (Additional file 2: Table S3) and were purified at 4 °C. The purified proteins were dialyzed overnight into the corresponding analysis buffers (Additional file 2: Table S4) for immediate analysis.
(§2) All experiments were conducted on a VP microcalorimeter (Microcal, MA) at 15 °C for PacP-LBD and at 20 °C for the remaining proteins. Proteins were dialyzed into the analysis buffers specified in Additional file 2: Table S4, placed into the sample cell and titrated with aliquots of ligand solutions (1 to 10 mM) freshly prepared in dialysis buffer. The mean enthalpies measured from the injection of the ligands into the analysis buffer were subtracted from the raw titration data prior to data analysis with the MicroCal version of ORIGIN. The data were fitted with the “One binding site model” of ORIGIN.

[2] = target: LBD of chemoreceptor R6 (WP_174062248.1); test: ITC binding to R6-LBD; set-up: species or system Agrobacterium larrymoorei; settings: 20 °C, Nb = no binding
Description: as §1, §2

[3] = target: LBD of chemoreceptor R9 (WP_189529961.1) (Paludibacterium paludis, UniProt A0A918NWY2); test: ITC binding to R9-LBD; settings: 20 °C, Nb = no binding
Description: as §1, §2

[4] = target: LBD of chemoreceptor R10 (WP_028866120.1); test: ITC binding to R10-LBD; set-up: species or system Psychromonas aquimarina; settings: 20 °C, Nb = no binding
Description: as §1, §2

[5] = target: LBD of chemoreceptor R7 (WP_019915375.1); test: ITC binding to R7-LBD; set-up: species or system Methyloversatilis discipulorum; settings: 20 °C, Nb = no binding
Description: as §1, §2

[6] = target: LBD of chemoreceptor R2 (WP_136157342.1) (Brenneria roseae, UniProt A0A2U1TV64, H128N/K136R); type: binding
Description: as §1, §2

[7] = target: ligand binding domain of the chemoreceptor ECA_RS12390 (PacP-LBD, R1, WP_011094075.1) (Pectobacterium atrosepticum, UniProt Q6D464); test: ITC binding to PacP-LBD; settings: 15 °C, Nb = no binding
Description: as §1, §2

[8] = target: LBD of chemoreceptor R3 (WP_006464688.1) (Herbaspirillum frisingense, UniProt A0ABU1PC34); test: ITC binding to R3-LBD; settings: 20 °C, Nb = no binding
Description: as §1, §2

[9] = target: LBD of chemoreceptor R4 (WP_158281851.1) (Rivihabitans pingtungensis, UniProt A0A318KJN4); test: ITC binding to R4-LBD; set-up: species or system Rivicola pingtungensis; settings: 20 °C, Nb = no binding
Description: as §1, §2

ITC binding to R7-LBD = test: ITC binding to R7-LBD; set-up: species or system Methyloversatilis discipulorum; settings: 20 °C, Nb = no binding
Description: as §1, §2

P. atrosepticum SCRI1043 = test: Quantitative capillary chemotaxis assay, wild type; type: cell-based, Pectobacterium atrosepticum; settings: wild type SCRI1043, 1 mM ligand, 30 min
Description: (§3) Overnight cultures of P. atrosepticum SCRI1043 were grown at 30 °C in minimal medium. At an OD660 of 0.4–0.45, the cultures were washed twice with chemotaxis buffer (50 mM K2HPO4/KH2PO4, 20 μM EDTA, 0.05% (v/v) glycerol, pH 7.0) and diluted to an OD660 of 0.1 in the same buffer. Subsequently, 230 μL of the resulting bacterial suspension was placed into the wells of 96-well plates. One-microliter capillary tubes (P1424, Microcaps; Drummond Scientific) were heat-sealed at one end and filled with either chemotaxis buffer (negative control) or chemotaxis buffer containing PacP ligands at a concentration of 1 mM. The capillaries were immersed in the bacterial suspensions at their open ends. After 30 min at room temperature, the capillaries were removed from the bacterial suspensions, rinsed with sterile water, and the contents were expelled into 1 mL of 40 mM K2HPO4, 15 mM KH2PO4. Serial dilutions were plated onto minimal medium supplemented with 15 mM glucose as the carbon source. The number of colony-forming units was determined after 36 h of incubation at 30 °C. In all the cases, the data were corrected with the number of cells that swam into the buffer-containing capillaries.

[10] = system: P. atrosepticum SCRI1043 pacP mutant (MpacP); test: Quantitative capillary chemotaxis assay, pacP mutant; type: cell-based, Pectobacterium atrosepticum; settings: 1 mM ligand
Description: A mutant defective in ECA_RS12390 was constructed by homologous recombination using a derivative plasmid of the suicide vector pKNG101. Briefly, a 0.5-kb fragment corresponding to the region encoding the LBD of ECA_RS12390 was amplified by the primers specified in Additional file 2: Table S2 and cloned into pGEM®-T. The resulting plasmid pGEM::ECA_RS12390 was digested with XmaI, and the 0.5-kb insert was cloned into the same site at pKNG101 to generate pKNG101::ECA_RS12390. This plasmid was subsequently transformed into P. atrosepticum SRCI1043 via biparental conjugation using E. coli β2163. All the plasmids were verified by PCR and sequencing. The pETb(+) derivatives encoding the LBD of the different receptors analyzed in this study (Table 1) were purchased from GeneScript. Plasmid pBBR-ECA_RS12390 was constructed by amplifying the pacP gene using the primers detailed in Additional file 2: Table S2 and cloning of the PCR product into the NdeI/BamHI sites of pBBR1MCS2_START. The sequences of the proteins analyzed in this study are provided in Additional file 2: Table S3. The ECA_RS12390 nucleotide sequence is available in the published genome of P. atrosepticum SCRI1043 [60].
as §3

[11] = system: Pectobacterium atrosepticum SCRI1043; test: Growth experiment, sole phosphorus source; type: cell-based; settings: PFM9 minimal medium, 5 mM ligand, 30 °C, 48 h
Description: (§4) P. atrosepticum SCRI1043 was cultured overnight in phosphate-free M9-based medium (PFM9) supplemented with 20 mM glucose as the carbon source and 500 µM inorganic phosphate as the phosphate source. Cultures were washed and then diluted to an OD600 of 0.02 in PFM9 supplemented with different PacP ligands as the sole carbon or phosphorous source at a final concentration of 5 mM. Subsequently, 200 µL aliquots of these cultures were transferred into microwell plates, which were subsequently grown at 30 °C on a Bioscreen microbiological growth analyzer (Oy Growth Curves Ab Ltd., Helsinki, Finland) for 48 h.

[12] = system: Bdellovibrio bacteriovorus; set-up: method as in PMID 119030, PMID 500565; settings: cited from earlier work
Bacillus subtilis = system: Bacillus subtilis; set-up: method as in PMID 119030, PMID 500565; settings: cited from earlier work
[13] = system: ECA_RS12390-LBD (PacP-LBD); test: Thermal shift ligand screening of PacP-LBD; type: binding, Pectobacterium atrosepticum; settings: thermal shift assay, Biolog arrays PM1, PM2A, PM3B, PM4A
Description: Assays were carried out on a MyIQ2 Real-Time PCR instrument (Bio-Rad, Hercules, CA, USA). Ligand solutions were prepared by dissolving the array compounds in 50 µL of Milli-Q water, which, according to the manufacturer, corresponds to a concentration of 10–20 mM. Freshly purified proteins were dialyzed into analysis buffer (Additional file 2: Table S4). Compound arrays PM1, PM2A (carbon sources), PM3B (nitrogen sources), and PM4A (phosphorus and sulfur sources) from Biolog (https://www.biolog.com/) were used. The compositions of these arrays are provided in Additional file 2: Table S1. The experiments were conducted in 96-well plates, and each assay mixture contained 20 µL of the dialyzed protein (at 80–50 µM), 2 µL of 5 × SYPRO orange (Life Technologies, Eugene, Oregon, USA), and 2.5 µL of the resuspended array compound or the equivalent amount of buffer in the ligand-free control. The samples were heated from 23 to 85 °C at a scan rate of 1 °C/min. The protein unfolding curves were monitored by detecting changes in SYPRO® Orange fluorescence. The Tm values were determined from the first derivative values of the raw fluorescence data.

[14] = system: Pectobacterium atrosepticum SCRI1043; test: Growth experiment, sole carbon source; type: cell-based; settings: PFM9 minimal medium, 5 mM ligand, 30 °C, 48 h
Description: as §4

[15] = ITC, 20 °C, R2 LBD, Nb = no binding

Sequence of LBD of chemoreceptor R2 (WP_136157342.1) (A0A2U1TV64 28-178 H128N/K136R): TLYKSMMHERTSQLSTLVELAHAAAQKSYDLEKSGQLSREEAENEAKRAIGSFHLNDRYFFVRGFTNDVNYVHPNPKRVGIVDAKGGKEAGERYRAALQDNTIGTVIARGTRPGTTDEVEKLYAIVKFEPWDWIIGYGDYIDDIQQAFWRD
Sequence of LBD of chemoreceptor R9 (WP_189529961.1) (A0A918NWY2 entry or part of it): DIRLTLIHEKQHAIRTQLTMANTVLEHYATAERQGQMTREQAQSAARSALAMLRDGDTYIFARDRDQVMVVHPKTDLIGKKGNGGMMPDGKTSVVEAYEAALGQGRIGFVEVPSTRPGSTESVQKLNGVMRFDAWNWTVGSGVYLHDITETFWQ
Sequence of ligand binding domain of the chemoreceptor ECA_RS12390 (PacP-LBD, R1, WP_011094075.1) (Q6D464 entry or part of it): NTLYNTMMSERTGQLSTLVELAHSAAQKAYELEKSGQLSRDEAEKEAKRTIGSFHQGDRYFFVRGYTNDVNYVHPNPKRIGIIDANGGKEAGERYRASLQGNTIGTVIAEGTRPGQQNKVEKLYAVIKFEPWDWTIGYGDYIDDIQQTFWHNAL
Sequence of LBD of chemoreceptor R3 (WP_006464688.1) (A0ABU1PC34 entry or part of it): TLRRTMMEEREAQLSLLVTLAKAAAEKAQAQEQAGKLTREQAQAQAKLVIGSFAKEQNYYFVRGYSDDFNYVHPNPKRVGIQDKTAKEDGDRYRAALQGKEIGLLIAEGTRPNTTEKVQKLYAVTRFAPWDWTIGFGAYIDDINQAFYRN
Sequence of LBD of chemoreceptor R4 (WP_158281851.1) (A0A318KJN4 entry or part of it): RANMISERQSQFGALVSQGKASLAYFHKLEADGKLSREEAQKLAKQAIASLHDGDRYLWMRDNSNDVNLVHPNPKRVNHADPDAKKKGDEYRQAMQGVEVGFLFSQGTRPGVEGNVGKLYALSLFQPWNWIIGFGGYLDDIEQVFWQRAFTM
Sequence of LBD of chemoreceptor R7 (WP_019915375.1) (as listed by the source): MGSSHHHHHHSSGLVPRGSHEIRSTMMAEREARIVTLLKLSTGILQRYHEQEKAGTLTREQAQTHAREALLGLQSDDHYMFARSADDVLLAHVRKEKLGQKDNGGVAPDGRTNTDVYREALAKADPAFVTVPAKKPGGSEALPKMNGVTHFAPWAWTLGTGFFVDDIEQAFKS

## O=C(O)CC(Br)C(=O)O (stereo not shown) [Bromosuccinate]
[1]
  KD: Nb
[2]
  KD: Nb
[3]
  Kd: 200 ± 13 µM
[4]
  KD: Nb

## O=CC(CO)OP(=O)(O)O (stereo not shown) [glyceraldehyde 2-phosphate]
[5]
  KD: bound

## N[C@@H](CS(=O)(=O)O)C(=O)O [L-cysteic acid]
[6]; [15]
  KD: did not reveal binding

## CC(O)C(=O)O (stereo not shown) [lactate]
[7]
  KD: did not bind

## O=CO [formic acid]
[6]
  KD: did not reveal binding

## CCC(=O)O [propionic acid]
[6]; [15]
  KD: did not reveal binding

## CCCCCCC(N)C(=O)O (racemic) [D,L-aminocaprylic acid]
[6]; [15]
  KD: did not reveal binding

## CC(=O)O [acetic acid]
[6]
  KD: did not reveal binding

## CC(=O)C(=O)O [Pyruvate]
[7]
  KD: did not bind

## O=C(O)CC(O)C(=O)O (stereo not shown) [Malate]
[1]
  Kd: 61 ± 2 µM
[2]
  Kd: 63 ± 1 µM
[3]
  Kd: 185 ± 5 µM
[4]
  KD: Nb

## O=C(O)/C=C/C(=O)O [Fumarate]
[1]
  Kd: 68 ± 6 µM
[2]
  Kd: 90 ± 4 µM
[3]
  KD: Nb
[4]
  KD: Nb

## O=C(O)[C@H](CO)OP(=O)(O)O [2-phosphoglycerate]
[7]
  KD: No binding

## CC(=O)CC(=O)O [acetoacetic acid]
[6]; [15]
  KD: did not reveal binding

## O=C(O)CC(CC(=O)O)C(=O)O [Tricarballylate]
[1]
  Kd: 15 ± 1 µM
[2]
  KD: Nb
[3]
  Kd: 138 ± 33 µM
[4]
  KD: Nb

## C[C@H](O)C(=O)O [L-lactate]
[1]
  KD: Nb
[2]
  KD: Nb
[3]
  KD: Nb
[4]
  Kd: 463 ± 51 µM

## CC(CC(=O)O)C(=O)O (stereo not shown) [Methylsuccinate]
[1]
  KD: Nb
[2]
  KD: Nb
[3]
  Kd: 254 ± 53 µM
[4]
  KD: Nb

## CCCCCC(=O)O [caproic acid]
[6]; [15]
  KD: did not reveal binding

## O=C(O)CO [Glycolate]
[1]
  KD: Nb
[2]
  KD: Nb
[3]
  KD: Nb
[4]
  Kd: 322 ± 114 µM

## O=P(O)(O)OC(CO)CO [glycerol 2-phosphate]
[7]
  Kd: 72 ± 2 µM
[8]
  KD: bound
  Kd: 36 ± 2 µM
[9]
  Kd: 60 ± 2 µM
[1]
  KD: Nb
[2]
  KD: Nb
ITC binding to R7-LBD
  Kd: 223 ± 45 µM
[3]
  KD: Nb
[4]
  KD: Nb
P. atrosepticum SCRI1043
  chemotaxis (capillary assay): Modest chemoattraction
[10]
  chemotaxis (capillary assay): served as an attractant
[11]
  growth as sole phosphorus source: permitted growth
[12]
  chemotaxis: weak chemotaxis
Bacillus subtilis
  chemotaxis: weak chemotaxis

## O=C(O)CCC(=O)O [Succinate]
[1]
  Kd: 127 ± 5 µM
[2]
  Kd: 90 ± 4 µM
[3]
  KD: Nb
[4]
  Kd: 362 ± 23 µM

## O=C(O)CC(O)(CC(=O)O)C(=O)O [Citrate]
[1]
  Kd: 10 ± 2 µM
[2]
  KD: Nb
[3]
  KD: Nb
[4]
  KD: Nb

## NC(=O)OP(=O)(O)O [carbamoylphosphate]
[7]
  KD: did not result in measurable heat release
[13]
  Tm change with respect to the ligand-free protein: significant increases in Tm

## O=C(CO)COP(=O)(O)O [dihydroxyacetone phosphate]
[7]
  Kd: 13 ± 1 µM
[8]
  KD: bound
  Kd: 109 ± 14 µM
[9]
  Kd: 230 ± 10 µM
[1]
  KD: Nb
[2]
  KD: Nb
[5]
  KD: Nb
[3]
  KD: Nb
[4]
  KD: Nb
P. atrosepticum SCRI1043
  chemotaxis (capillary assay): Modest chemoattraction
[10]
  chemotaxis (capillary assay): Only glycerol 2-phosphate served as an attractant for the mutant
[14]
  growth as sole carbon source: devoid of apparent metabolic value
[11]
  growth as sole phosphorus source: devoid of apparent metabolic value
